Data taken from ChEMBL document CHEMBL5728342, “Heterocyclic compounds for the inhibition of pask” (2021).

Target: PAS domain-containing serine/threonine-protein kinase (Homo sapiens, UniProt Q96RG2)
Assay: FRET Assay : Table 3: In the presence of kinase and ATP, the Ulight-peptide is phosphorylated and captured by an anti-phospho-substrate antibody, which brings the Eu chelate donor and Ulight acceptor dyes into close proximity. Upon excitation at 340 nm, the Eu chelate transfers its energy to the Ulight dye, resulting in a fluorescent light emission at 665 nm. Titration of kinase at 1 mM ATP was achieved via the following protocol. After making serial three-fold dilutions of PASK (Invitrogen) in reaction buffer across the plate; 5 μl of kinase dilution and 5 μl substrate/ATP mix were added to the wells of the white Optiplate-384 (PerkinElmer). The contents of the plate were and incubated at RT for 1 h. The reaction was stopped by adding 5 μl of stop solution to each test well followed by mixing and incubation at RT for 10 minutes. 5 μl of detection mix (detection antibody diluted in detection buffer) was added; the contents of the plate were mixed and then incubated in the dark for 1 hour at RT. The signal was recorded at TR-FRET mode (665 nm/615 nm). The results were graphed to calculate the EC50.

Chain of PAS domain-containing serine/threonine-protein kinase (Q96RG2 whole entry, the tested form may be a part): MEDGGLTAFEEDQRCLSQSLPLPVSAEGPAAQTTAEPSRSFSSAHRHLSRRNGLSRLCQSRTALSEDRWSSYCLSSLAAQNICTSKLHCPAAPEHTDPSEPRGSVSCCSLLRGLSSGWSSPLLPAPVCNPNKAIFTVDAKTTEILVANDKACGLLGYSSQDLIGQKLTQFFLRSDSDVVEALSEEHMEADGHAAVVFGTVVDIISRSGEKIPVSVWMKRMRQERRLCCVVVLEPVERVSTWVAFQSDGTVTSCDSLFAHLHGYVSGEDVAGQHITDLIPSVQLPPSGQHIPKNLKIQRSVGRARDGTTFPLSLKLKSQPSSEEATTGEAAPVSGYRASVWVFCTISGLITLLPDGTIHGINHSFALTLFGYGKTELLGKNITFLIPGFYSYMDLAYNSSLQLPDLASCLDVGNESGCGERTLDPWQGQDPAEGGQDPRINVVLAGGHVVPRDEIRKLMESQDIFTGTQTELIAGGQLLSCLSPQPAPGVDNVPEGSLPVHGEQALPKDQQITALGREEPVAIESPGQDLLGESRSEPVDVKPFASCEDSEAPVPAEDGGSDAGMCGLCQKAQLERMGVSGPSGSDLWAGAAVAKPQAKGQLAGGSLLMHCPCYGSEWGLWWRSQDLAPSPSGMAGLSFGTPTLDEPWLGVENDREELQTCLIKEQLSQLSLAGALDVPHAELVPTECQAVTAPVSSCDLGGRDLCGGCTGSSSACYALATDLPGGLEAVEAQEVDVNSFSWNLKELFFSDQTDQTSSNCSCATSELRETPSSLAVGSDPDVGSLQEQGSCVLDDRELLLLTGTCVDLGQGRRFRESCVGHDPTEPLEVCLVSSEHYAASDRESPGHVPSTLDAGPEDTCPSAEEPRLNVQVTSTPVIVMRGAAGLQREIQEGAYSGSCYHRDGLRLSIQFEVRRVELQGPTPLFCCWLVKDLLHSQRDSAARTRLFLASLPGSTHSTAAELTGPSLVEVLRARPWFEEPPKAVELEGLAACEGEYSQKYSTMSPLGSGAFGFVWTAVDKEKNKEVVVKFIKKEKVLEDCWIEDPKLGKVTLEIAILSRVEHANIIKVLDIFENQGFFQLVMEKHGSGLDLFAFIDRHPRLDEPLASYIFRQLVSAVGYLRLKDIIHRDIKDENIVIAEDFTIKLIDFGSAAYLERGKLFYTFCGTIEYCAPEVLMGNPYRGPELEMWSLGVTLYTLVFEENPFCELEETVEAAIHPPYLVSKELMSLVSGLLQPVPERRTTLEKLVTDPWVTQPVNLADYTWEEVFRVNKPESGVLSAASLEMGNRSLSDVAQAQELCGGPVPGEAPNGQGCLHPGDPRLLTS

Nc1nn2c(c1-c1ccccn1)CC(c1ccc3c(c1)OC(F)(F)O3)=CC2=O
IC50: < 10 µM
